Reference: patent publication US20250026721A1, “COMPOUNDS AND METHODS FOR MODULATING RAS-PI3K” (Vividion Therapeutics, Inc., priority 2023, published 2025)

These compounds were tested against T1, PIK3CA (Homo sapiens, UniProt P42336) (assay: In vitro ELISA target engagement assay for PIK3CA in Jurkat cellular lysate (competition with PIK3CA Biotin Probe)). Conditions: 1 hour at rt, then 500 nM PIK3CA Biotin Probe, read-out: Elisa Target Engagement Assay (TE50).
T1 construct: endogenous in cells; host or cells: Jurkat cell lysate
T1 sequence (P42336 whole entry): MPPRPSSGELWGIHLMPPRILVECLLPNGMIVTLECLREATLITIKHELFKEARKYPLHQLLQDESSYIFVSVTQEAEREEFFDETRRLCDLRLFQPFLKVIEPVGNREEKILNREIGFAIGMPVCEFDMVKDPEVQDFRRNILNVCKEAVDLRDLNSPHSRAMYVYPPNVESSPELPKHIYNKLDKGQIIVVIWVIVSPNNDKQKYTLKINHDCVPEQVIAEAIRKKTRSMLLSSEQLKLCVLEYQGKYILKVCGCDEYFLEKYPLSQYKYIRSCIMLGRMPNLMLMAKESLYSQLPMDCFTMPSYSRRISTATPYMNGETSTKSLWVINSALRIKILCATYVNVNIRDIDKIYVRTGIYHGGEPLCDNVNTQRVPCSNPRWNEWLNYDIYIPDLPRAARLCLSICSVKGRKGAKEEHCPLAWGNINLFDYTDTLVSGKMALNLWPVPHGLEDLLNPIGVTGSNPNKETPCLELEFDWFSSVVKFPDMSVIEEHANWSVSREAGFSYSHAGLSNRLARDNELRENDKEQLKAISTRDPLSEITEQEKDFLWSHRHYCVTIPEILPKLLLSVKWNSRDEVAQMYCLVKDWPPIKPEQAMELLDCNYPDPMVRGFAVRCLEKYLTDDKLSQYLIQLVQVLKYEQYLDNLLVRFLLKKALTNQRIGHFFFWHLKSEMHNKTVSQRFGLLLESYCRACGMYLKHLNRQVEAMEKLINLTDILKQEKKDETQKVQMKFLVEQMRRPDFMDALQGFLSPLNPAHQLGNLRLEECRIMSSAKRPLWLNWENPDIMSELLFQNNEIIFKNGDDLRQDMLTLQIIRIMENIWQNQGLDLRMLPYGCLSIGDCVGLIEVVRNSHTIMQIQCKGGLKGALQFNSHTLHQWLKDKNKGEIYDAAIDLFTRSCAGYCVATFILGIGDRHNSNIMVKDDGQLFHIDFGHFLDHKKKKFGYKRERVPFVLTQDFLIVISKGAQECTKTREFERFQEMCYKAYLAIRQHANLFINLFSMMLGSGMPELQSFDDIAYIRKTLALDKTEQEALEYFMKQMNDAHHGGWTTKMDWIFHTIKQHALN
T1 sequence (P27986 whole entry partner): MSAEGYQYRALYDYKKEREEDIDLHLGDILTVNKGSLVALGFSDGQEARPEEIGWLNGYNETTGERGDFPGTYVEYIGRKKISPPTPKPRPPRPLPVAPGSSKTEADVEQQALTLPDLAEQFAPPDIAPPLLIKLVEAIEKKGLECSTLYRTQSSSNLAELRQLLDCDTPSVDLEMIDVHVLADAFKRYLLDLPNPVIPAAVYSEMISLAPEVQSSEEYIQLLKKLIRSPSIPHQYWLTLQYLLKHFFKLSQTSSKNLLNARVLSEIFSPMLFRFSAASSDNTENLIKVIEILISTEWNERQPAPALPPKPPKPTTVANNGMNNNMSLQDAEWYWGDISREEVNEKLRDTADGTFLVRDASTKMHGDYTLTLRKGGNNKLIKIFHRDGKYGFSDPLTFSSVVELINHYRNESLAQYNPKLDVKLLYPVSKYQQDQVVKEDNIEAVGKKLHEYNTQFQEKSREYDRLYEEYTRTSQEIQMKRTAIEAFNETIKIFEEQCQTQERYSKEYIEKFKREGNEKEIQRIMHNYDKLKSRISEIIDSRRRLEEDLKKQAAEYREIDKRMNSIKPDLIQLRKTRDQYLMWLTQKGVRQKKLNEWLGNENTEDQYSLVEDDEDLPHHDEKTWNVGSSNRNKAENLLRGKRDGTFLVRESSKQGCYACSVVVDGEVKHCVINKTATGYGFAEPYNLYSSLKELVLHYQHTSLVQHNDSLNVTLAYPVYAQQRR
Format: binding
Method: Example 3. In Vitro ELISA Target Engagement Assay for […] Engagement of compounds on PIK3CA were assessed in Jurkat cellular lysate via a sandwich ELISA. A solution of PIK3CA Biotin Probe was generated at 10 mM and used in the biological testing. […] Treatment Protocol: Jurkat cellular lysate was generated from frozen cell pellets. Cells were thawed on ice and resuspended in cold Dulbecco's phosphate buffered saline (DPBS) (12 mL/300 e^6 cells) then lysed by probe sonication (12×3 second pulses). Jurkat lysate was plated (50 μl/well) in Armadillo 96 well PCR plates (Thermo Fisher catalog number AB2396). The lysate was treated with serial dilutions of test compounds up to 200 μM and incubated for 1 hour at rt. Following compound incubation, PIK3CA Biotin Probe was added to a final concentration of 500 nM, and lysate was mixed by pipetting gently and incubated for an additional 1 hour at rt. The mixture was then diluted in 75 μL Dilution buffer. The mixture was centrifuged for 5 minutes at 4122 g and stored at −80° C. until ELISA TE detection. ELISA TE Detection: Quantification of PIK3CA TE was initiated by coating of the ELISA plate (Thermo Scientific White 384-Well Immuno plates; Thermo Fisher catalog number 460372). The capture antibody was diluted in plating buffer (1:83) and added to the ELISA plate, 20 μl/well, overnight at 4° C. The plate was then washed twice with PBST, 100 μl/well, and blocked with addition of blocking buffer (100 μl/well, 1 hour at rt). During block, treated and probe labeled lysate was thawed. After Block, the block buffer was removed and the thawed lysate was added to the ELISA plate, 30 μl/well, for 1.5 hours at rt. Following lysate incubation, the assay plate was washed 3 times with PBST, 100 μl/well. The Neutravidin-HRP was then diluted (1:500 in dilution buffer) and added for 1 hour at rt, 20 μl/well. Following incubation, the assay plate was washed 4 times with PBST, 100 μl/well, HRP substrate was added to plate, 20 μl/well and luminescence signal was read (Clariostar Plate Reader). For each compound the potency of target engagement (TE50) was determined using Graphpad Prism.

Compound | IC50
O=C(NCC1=CS(=O)(=O)C1)C1(F)CCN(S(=O)(=O)c2ccc(Br)cc2-c2ccccc2Cl)CC1 [Compound 233, 1-((5-bromo-2′-chloro-[1,1′-biphenyl]-2-yl)sulfonyl)-N-((1,1-dioxido-2H-thiet-3-yl)methyl)-4-fluoropiperidine-4-carboxamide] | 290 nM
COC[C@H](/C=C\S(C)(=O)=O)NC(=O)C1(F)CCN(S(=O)(=O)c2ccc(Br)cc2-c2ccccc2Cl)CC1 [Compound 247, (S,Z)-1-((5-bromo-2′-chloro-[1,1′-biphenyl]-2-yl)sulfonyl)-4-fluoro-N-(1-methoxy-4-(methylsulfonyl)but-3-en-2-yl)piperidine-4-carboxamide] | 410 nM
C[C@@H]1C[C@](F)(C(=O)NC/C=C\C(=O)N2CC(F)(F)C2)CCN1C(=O)[C@H]1COC(C)(C)C[C@@H]1c1ccccc1Cl (single isomer, unassigned) [Compound 293, (2*R,4*S)-1-((3*R,4*S)-4-(2-chlorophenyl)-6,6-dimethyltetrahydro-2H-pyran-3-carbonyl)-N-((Z)-4-(3,3-difluoroazetidin-1-yl)-4-oxobut-2-en-1-yl)-4-fluoro-2-methylpiperidine-4-carboxamide] | 820 nM
C[C@H](/C=C/C(=O)N1CC(F)(F)C1)NC(=O)C1(F)CCN(S(=O)(=O)c2ccc(C#N)cc2-c2ccccc2Cl)CC1 [Compound 136, (R,E)-1-((2′-chloro-5-cyano-[1,1′-biphenyl]-2-yl)sulfonyl)-N-(5-(3,3-difluoroazetidin-1-yl)-5-oxopent-3-en-2-yl)-4-fluoropiperidine-4-carboxamide] | 190 nM
C[C@H](/C=C\S(C)(=O)=O)NC(=O)[C@@]1(F)CCCN(C(=O)[C@@H]2CN(CC(F)(F)F)C[C@@H]2c2c(F)ccc(F)c2Cl)CC1 (single isomer, unassigned) [Compound 226, (R)-1-((3*S,4*S)-4-(2-chloro-3,6-difluorophenyl)-1-(2,2,2-trifluoroethyl)pyrrolidine-3-carbonyl)-4-fluoro-N-((R,Z)-4-(methylsulfonyl)but-3-en-2-yl)azepane-4-carboxamide] | 170 nM
C[C@H](/C=C\S(C)(=O)=O)NC(=O)C1(F)CCN(S(=O)(=O)c2ccc(Br)cc2-c2ccccc2)CC1 [Compound 57, (R,Z)-1-((5-bromo-[1,1′-biphenyl]-2-yl)sulfonyl)-4-fluoro-N-(4-(methylsulfonyl)but-3-en-2-yl)piperidine-4-carboxamide] | 580 nM
C[C@H](/C=C\S(C)(=O)=O)NC(=O)C1(F)CCN(S(=O)(=O)c2ccc(Cl)cc2-c2ccccc2Cl)CC1 [Compound 23, (R,Z)-1-((2′,5-dichloro-[1,1′-biphenyl]-2-yl)sulfonyl)-4-fluoro-N-(4-(methylsulfonyl)but-3-en-2-yl)piperidine-4-carboxamide] | 91 nM
C[C@H](/C=C/C(=O)N1CC(F)(F)C1)NC(=O)[C@]1(F)CCN(S(=O)(=O)c2ccc(C(F)(F)F)cc2-c2ccccc2Cl)[C@H](C)C1 [Compound 152, (2R,4S)-1-((2′-chloro-5-(trifluoromethyl)-[1,1′-biphenyl]-2-yl)sulfonyl)-N-((R,E)-5-(3,3-difluoroazetidin-1-yl)-5-oxopent-3-en-2-yl)-4-fluoro-2-methylpiperidine-4-carboxamide] | 450 nM
C[C@H](/C=C\S(C)(=O)=O)NC(=O)C1(F)CCN(S(=O)(=O)c2ccc(Br)cc2-c2ccccc2C(F)(F)F)CC1 [Compound 54, (R,Z)-1-((5-bromo-2′-(trifluoromethyl)-[1,1′-biphenyl]-2-yl)sulfonyl)-4-fluoro-N-(4-(methylsulfonyl)but-3-en-2-yl)piperidine-4-carboxamide] | 860 nM
C[C@H](/C=C\S(C)(=O)=O)NC(=O)[C@]1(F)CCCN(S(=O)(=O)c2ccc(C(F)(F)F)cc2-c2ccccc2Cl)CC1 [Compound 311, (S)-1-((2′-chloro-5-(trifluoromethyl)-[1,1′-biphenyl]-2-yl)sulfonyl)-4-fluoro-N-((R,Z)-4-(methylsulfonyl)but-3-en-2-yl)azepane-4-carboxamide] | 820 nM
CS(=O)(=O)/C=C/CNC(=O)C1(F)CCN(S(=O)(=O)c2ccc(Br)cc2-c2ccccc2Cl)CC1 [Compound 64, (E)-1-((5-bromo-2′-chloro-[1,1′-biphenyl]-2-yl)sulfonyl)-4-fluoro-N-(3-(methylsulfonyl)allyl)piperidine-4-carboxamide] | 75 nM
C[C@H](/C=C\S(C)(=O)=O)NC(=O)[C@]1(F)CCN(S(=O)(=O)c2ccc(C(F)(F)F)cc2-c2ccccc2Cl)[C@H](C)C1 [Compound 142, (2R,4S)-1-((2′-chloro-5-(trifluoromethyl)-[1,1′-biphenyl]-2-yl)sulfonyl)-4-fluoro-2-methyl-N-((R,Z)-4-(methylsulfonyl)but-3-en-2-yl)piperidine-4-carboxamide] | 120 nM

More lines, in order of falling IC50, values ahead:

IC50 | Compound
810 nM | Cc1cccc(Cl)c1-c1cc(Br)ccc1S(=O)(=O)N1CCC(F)(C(=O)N[C@H](C)/C=C\S(C)(=O)=O)CC1 [Compound 60, 1-((5-bromo-2′-chloro-6′-methyl-[1,1′-biphenyl]-2-yl)sulfonyl)-4-fluoro-N-((R,Z)-4-(methylsulfonyl)but-3-en-2-yl)piperidine-4-carboxamide]
530 nM | COc1ccc(S(=O)(=O)N2CCC[C@@](F)(C(=O)N[C@H](C)/C=C\S(C)(=O)=O)CC2)c(-c2ccccc2Cl)c1 [Compound 313, (S)-1-((2′-chloro-5-methoxy-[1,1′-biphenyl]-2-yl)sulfonyl)-4-fluoro-N-((R,Z)-4-(methylsulfonyl)but-3-en-2-yl)azepane-4-carboxamide]
490 nM | C[C@H](/C=C/C(=O)N1CC(F)(F)C1)NC(=O)[C@]1(F)CCN(S(=O)(=O)c2cnc(C(F)(F)F)cc2-c2ccccc2Cl)[C@H](C)C1 [Compound 215, (2R,4S)-1-((4-(2-chlorophenyl)-6-(trifluoromethyl)pyridin-3-yl)sulfonyl)-N-((R,E)-5-(3,3-difluoroazetidin-1-yl)-5-oxopent-3-en-2-yl)-4-fluoro-2-methylpiperidine-4-carboxamide]
160 nM | C[C@@H]1C[C@](F)(C(=O)NC/C=C\C(=O)N2CC(F)(F)C2)CCN1S(=O)(=O)c1ccc(C#N)cc1-c1ccccc1Cl [Compound 292, (2R,4S)-1-((2′-chloro-5-cyano-[1,1′-biphenyl]-2-yl)sulfonyl)-N-((Z)-4-(3,3-difluoroazetidin-1-yl)-4-oxobut-2-en-1-yl)-4-fluoro-2-methylpiperidine-4-carboxamide]
55 nM | C[C@H](/C=C\S(C)(=O)=O)NC(=O)[C@]1(F)CCN(S(=O)(=O)c2ccc(C#N)cc2-c2ccccc2Cl)[C@H](C)C1 [Compound 144, (2R,4S)-1-((2′-chloro-5-cyano-[1,1′-biphenyl]-2-yl)sulfonyl)-4-fluoro-2-methyl-N-((R,Z)-4-(methylsulfonyl)but-3-en-2-yl)piperidine-4-carboxamide]
54 nM | O=C(NC1C=CS(=O)(=O)C1)C1(F)CCN(S(=O)(=O)c2ccc(Br)cc2-c2ccccc2Cl)CC1 (racemic) [Compound 65, rac-1-((5-bromo-2′-chloro-[1,1′-biphenyl]-2-yl)sulfonyl)-N-(1,1-dioxido-2,3-dihydrothiophen-3-yl)-4-fluoropiperidine-4-carboxamide]
